Data from patent US20030125572A1, “Diester compounds of maleic acid (or fumaric acid)” (SENJU PHARMACEUTICAL CO., LTD., priority 1999, published 2003).
Structures can show the parent of a compound that is named as a salt.

Key:
[1] = system: mouse auricule inflammation; test: Inflammation model of mouse auricule (PMA-induced edema); format: in vivo; conditions: for Inhibition rate (%): auricule edematization, against control (methanol), 0.5% solution topically, 24 hours
Procedure: The compound of Example 1 is dissolved in ethanol to the concentration of 0.5%.
6-Weeks aged male mice of ddy strain as procured from SLC CO. are subjected to the test.
In order to cause inflammation, a solution (100 μg/mL) of phorbol 12-myristate 13-acetate (PMA) in acetone is applied in 10-μl portions (20 μl in total per mouse) onto the inside and outside of right-hand auricule of each mouse in such a manner that the solution may extend over the whole auricule. 24 Hours after causing inflammation, the thickness of right-hand auricule of each mouse is measured with use of a dial thickness gauge, and the edematization rate is calculated based on the thickness before causing inflammation.
The test substance is applied in 10-μl portions (20 μl in total per mouse) onto the inside and outside of right-hand auricule of each mouse.

[2] = DPPH radical scavenging capacity; conditions: for Radical scavenging capacity: DPPH, 20 min, absorbance at 517 nm
Procedure: The Compound is tested for the radical scavenging capacity against the stabilized radical of 1,1-diphenyl-2-picrylhydro radicals (DPPH).
The compound of Example 1 is dissolved in ethanol to the concentrations ranging from 10^−2 to 10^−5 M.
The test is carried out in accordance with the procedure of Blois, M. S., Nature: 181, 1199 […].
Added to 300 μl of a sample solution is 2.7 ml of a 0.011 mM ethanol solution of DPPH or a stabilized radical, and the solution is stirred and left on standing for 20 min., followed by measurement of absorbance at a wavelength of 517 nm. The radical scavenging rate of the sample solution is determined by the following equation:
Radical scavenging rate (%)=(absorbance of control−absorbance of the sample solution[…])×100

In the case of `Cc1c(C)c2c(c(C)c1OC(=O)/C=C\C(=O)OC1=C(O)[C@@H]([C@@H](O)CO)OC1=O)CCC(C)(CCCC(C)CCCC(C)CCCC(C)C)O2` (stereo partly drawn) [Example 1, α-Tocopheryl L-Ascorbic Acid-2-O-Maleate (or Fumarate)], the “Inhibition rate (%)” value ([1]; listed as Compound of Example 1) is reported as 83.8%, the “Inhibition rate (%)” value ([1]; listed as the Compound) is reported as 83.3% and the “Edematization rate (%)” value ([1]; male ddy mice, PMA on right auricule, 24 hours after causing inflammation, 0.5% solution applied topically, 20 μl per mouse, mean ± S.E. (n = 8)) is reported as 26.9 ± 6.2 %. It also gave an IC50 ([2]; DPPH radical) of roughly 560 µM, a Radical scavenging capacity ([2]; final concn. 10 μM) of 5.2% and a Radical scavenging capacity ([2]; final concn. 100 μM) of 10.8%. For the same molecule, the Radical scavenging capacity ([2]; final concn. 300 μM) was 29.5% and the Radical scavenging capacity ([2]; final concn. 1000 μM) was 61.4%.
